This note sets out measurements from DBAASP.

Converted amounts (≈) assume the structure as drawn. “And” between values parts separate entries of the source, which are not always exact repeats. Identical values can stand only once.

Test systems include Escherichia coli K91BK; Escherichia coli D21; Staphylococcus aureus.
Holding throughout (test): ≥ marks a high value that may be exact or a test limit, other limits are often not marked, values filed in µg/mL are converted to µM
Test [1] relates to Neisseria gonorrhoeae F62.
Test [2] has as its system Neisseria gonorrhoeae FA19.
Test [3] concerns Escherichia coli ATCC 25922.
The subject of test [4] is Staphylococcus epidermidis PIA 8400.
Test [5] concerns Enterococcus faecalis ATCC 29212.
Test [6] concerns Staphylococcus aureus ATCC 29213.
The subject of test [7] is Staphylococcus aureus NCTC 12981.
In test [8] the test system is Pseudomonas aeruginosa ATCC 27853.
Test [9] deals with Escherichia coli NCTC 10418.
The test system of test [10] is Staphylococcus aureus ATCC 25923.
The subject of test [11] is Xanthomonas vesicatoria DSM 50861.
The test system of test [12] is Staphylococcus aureus 90857.
Test [13] concerns Pseudomonas corrugata DSM 7228.
The subject of test [14] is Clavibacter michiganensis subsp. michiganensis DSM 46294.
For test [15], the system named is Pectobacterium carotovorum subsp. carotovorum DSM 30168.
Test [16] has as its system Pseudomonas syringae pv. tomato DC3000.
Test [17] deals with Pseudomonas syringae pv. syringae DSM 10604.
Test [18] has as its system Staphylococcus aureus FDA 209P.
Test [19] relates to Escherichia coli IFO 3972.
In test [20] the test system is Bacillus anthracis Sterne 34F2.
Test [21] deals with Burkholderia thailandensis.
The test system of test [22] is Bacillus subtilis var. niger ATCC 9372.
Test [23] relates to Candida albicans ATCC 37092.
In test [24] the test system is Acinetobacter baumannii ATCC 19606.
Test [25] concerns Enterococcus faecalis ATCC 19433.
In test [26] the test system is Enterobacter cloacae ATCC 49141.
Test [27] concerns Candida albicans ATCC 36232.
Test [28] relates to Escherichia coli ATCC 2592.
Test [29] relates to Micrococcus luteus ATCC 9341.
The test system of test [30] is Pseudomonas aeruginosa ATCC 9027.
The subject of test [31] is Proteus vulgaris ATCC 6380.
Test [32] concerns Staphylococcus aureus ATCC 6538.

In general, MIC refers to the lowest concentration found to suppress growth. Turning to `CC(C)C[C@H](NC(=O)[C@H](CCCNC(=N)N)NC(=O)CNC(=O)CNC(=O)[C@@H](N)CCCNC(=N)N)C(=O)N[C@H]1CSSC[C@@H](C(N)=O)NC(=O)[C@H](C(C)C)NC(=O)[C@@H]2CSSC[C@H](NC(=O)[C@H](Cc3ccc(O)cc3)NC1=O)C(=O)N[C@@H](CCCNC(=N)N)C(=O)N[C@@H](CCCNC(=N)N)C(=O)N[C@@H](CCCNC(=N)N)C(=O)N[C@@H](Cc1ccccc1)C(=O)N2` [RGGRLCYCRRRFCVC], the figures for the MIC in [1] and in test [2] were 0.58 µM (≈ 1.07 µg/mL) and 4.11 µM (≈ 7.58 µg/mL), respectively.
In the case of `CC[C@H](C)[C@H](NC(=O)[C@H](Cc1c[nH]c2ccccc12)NC(=O)[C@@H](NC(=O)[C@@H](NC(=O)[C@H](Cc1c[nH]c2ccccc12)NC(=O)[C@H](CCCCN)NC(=O)[C@H](CCCCN)NC(=O)[C@@H](NC(=O)[C@@H](N)CCCN=C(N)N)[C@@H](C)O)[C@@H](C)CC)C(C)C)C(N)=O` [RTKKWIVWI], the MIC was 13.8 µM (≈ 17 µg/mL) in test [3]; 13.8 µM (≈ 17 µg/mL) in test [4]; 55.3 µM and 110 µM in test [5]; 27.7 µM (≈ 34 µg/mL) in test [6].
For the compound `NC(=O)[C@H](Cc1c[nH]c2ccccc12)NC(=O)[C@H](CCCN=C(N)N)NC(=O)[C@H](Cc1c[nH]c2ccccc12)NC(=O)[C@H](CCCN=C(N)N)NC(=O)[C@@H](N)Cc1c[nH]c2ccccc12` [WRWRW], the MIC in test [3] is 16.9 µM (≈ 15 µg/mL); in test [7], at least 72 µM; in [8] it was 56.2 µM (≈ 49.9 µg/mL); in [9], at least 72 µM; in test [10], 11.2 µM (≈ 9.99 µg/mL).
As for `CC[C@H](C)[C@H](NC(=O)[C@H](CC(C)C)NC(=O)[C@H](CCCCN)NC(=O)[C@H](CCCCN)NC(=O)[C@H](CC(C)C)NC(=O)[C@@H](NC(=O)[C@H](CCCCN)NC(=O)[C@H](CCCCN)NC(=O)[C@@H](NC(=O)[C@@H](NC(=O)[C@H](CCCN=C(N)N)NC(=O)[C@@H](N)CC(C)C)[C@@H](C)CC)[C@@H](C)CC)[C@@H](C)CC)C(N)=O` [LRIIKKILKKLI], the MIC in test [11] worked out at 0.169 µM (≈ 0.25 µg/mL); in test [12], 3 µM (≈ 4.43 µg/mL); in test [13], 0.338 µM (≈ 0.5 µg/mL); in [14] it was 0.338 µM (≈ 0.5 µg/mL); in [15], 1.69 µM (≈ 2.5 µg/mL); in test [16], 0.169 µM (≈ 0.25 µg/mL). This compound registered an MIC in [17] of 0.338 µM (≈ 0.5 µg/mL).
As to `CC(C)[C@H](NC(=O)[C@H](CCCCN)NC(=O)[C@H](CCCN=C(N)N)NC(=O)[C@H](CCCCN)NC(=O)[C@H](CCCCN)NC(=O)[C@H](CCCCN)NC(=O)[C@@H]1CCCN1)C(=O)O` [PKKKRKV], the minimum inhibitory concentration (MIC) in test [18] and in test [19] was at least 500 µM throughout.
Consider `CC[C@H](C)[C@H](NC(=O)[C@H](CCCN=C(N)N)NC(=O)[C@@H](NC(=O)[C@@H](NC(=O)[C@H](CCCN=C(N)N)NC(=O)[C@H](CC(C)C)NC(=O)[C@@H](NC(=O)[C@@H](NC(=O)[C@@H]1CCCN1C(=O)CNC(=O)[C@H](Cc1ccc(O)cc1)NC(=O)[C@H](CCCCN)NC(=O)[C@H](CCCCN)NC(=O)[C@@H](NC(=O)[C@H](C)NC(=O)[C@H](Cc1cnc[nH]1)NC(=O)[C@@H](NC(=O)[C@@H](NC(=O)[C@H](CCCCN)NC(=O)[C@H](CCCN=C(N)N)NC(=O)CNC(=O)[C@H](CC(C)C)NC(=O)[C@H](CCCN=C(N)N)NC(=O)[C@H](CCCN=C(N)N)NC(=O)[C@H](CC(C)C)NC(=O)[C@H](C)NC(=O)CNC(C)=O)[C@@H](C)CC)[C@@H](C)O)C(C)C)[C@@H](C)O)C(C)C)[C@@H](C)CC)[C@@H](C)CC)C(=O)N[C@@H](C)C(=O)NCC(N)=O` [GALRRLGRKITHAVKKYGPTVLRIIRIAG], for which the minimal inhibitory concentration (MIC) in test [20] was 1.19 µM (≈ 3.87 µg/mL); against Escherichia coli K91BK it was 28.7 µM (≈ 93.4 µg/mL); in [21], at least 84.1 µM; in test [22] it was 1.31 µM (≈ 4.27 µg/mL).
On to `CC[C@H](C)[C@H](NC(=O)[C@H](CCCN=C(N)N)NC(=O)[C@@H](N)CCCN=C(N)N)C(=O)N[C@@H](CCCN=C(N)N)C(=O)N1CCC[C@H]1C(=O)N[C@@H](CCCN=C(N)N)C(=O)N1CCC[C@H]1C(=O)N1CCC[C@H]1C(=O)N[C@@H](CCCN=C(N)N)C(=O)N[C@@H](CC(C)C)C(=O)N1CCC[C@H]1C(=O)N[C@@H](CCCN=C(N)N)C(=O)N1CCC[C@H]1C(=O)N[C@@H](CCCN=C(N)N)C(=O)N1CCC[C@H]1C(=O)N[C@@H](CCCN=C(N)N)C(=O)N1CCC[C@H]1C(=O)N[C@@H](CC(C)C)C(=O)N1CCC[C@H]1C(=O)N[C@@H](Cc1ccccc1)C(=O)N1CCC[C@H]1C(=O)N[C@@H](CCCN=C(N)N)C(=O)N1CCC[C@H]1C(=O)NCC(=O)O` [RRIRPRPPRLPRPRPRPLPFPRPG], for which the minimal inhibitory concentration (MIC) was 0.45 µM (≈ 1.32 µg/mL) in test [3], 2.6 µM (≈ 7.64 µg/mL) in test [6] and 1.12 µM (≈ 3.29 µg/mL) in test [23].
As to `CC(C)C[C@H](NC(=O)[C@H](CCCCN)NC(=O)[C@H](CCCCN)NC(=O)[C@H](CC(C)C)NC(=O)[C@H](CC(C)C)NC(=O)[C@H](CCCCN)NC(=O)[C@H](CCCCN)NC(=O)[C@H](CC(C)C)NC(=O)[C@H](CC(C)C)NC(=O)[C@H](CCCCN)NC(=O)[C@H](CCCCN)NC(=O)[C@H](CC(C)C)NC(=O)[C@H](C)NC(=O)[C@H](CC(=O)O)NC(=O)[C@@H](N)CC(=O)O)C(=O)O` [DDALKKLLKKLLKKL], the MIC is 50 µM and 75 µM in test [3]; 12.5 µM and 25 µM in [8]; 25 µM (≈ 44.2 µg/mL) in [24]; at least 50 µM in [25]; 6.2 µM (≈ 11 µg/mL) in test [26]; 25 µM (≈ 44.2 µg/mL) with Escherichia coli D21.
Regarding `CC[C@H](C)[C@H](NC(=O)[C@H](CCCCN)NC(=O)[C@@H]1CCCN1C(=O)[C@H](CC(C)C)NC(=O)[C@H](Cc1ccccc1)NC(=O)[C@H](CC(N)=O)NC(=O)[C@H](C)NC(=O)[C@H](C)NC(=O)[C@H](CC(C)C)NC(=O)CNC(=O)[C@H](C)NC(=O)[C@H](CC(C)C)NC(=O)[C@@H](N)CC(C)C)C(=O)N[C@@H](Cc1ccccc1)C(=O)N[C@@H](CS)C(=O)N[C@@H](CCCCN)C(=O)N[C@H](C(=O)N[C@H](C(=O)N[C@@H](CCCN=C(N)N)C(=O)N[C@@H](CCCCN)C(=O)N[C@@H](CS)C(N)=O)[C@@H](C)O)[C@@H](C)CC` [LLAGLAANFLPKIFCKITRKC], the minimum inhibitory concentration (MIC) is 2.69 µM (≈ 6.25 µg/mL) in test [27]; 5.39 µM (≈ 12.5 µg/mL) in [28]; 2.69 µM (≈ 6.25 µg/mL) in test [29]; 10.8 µM (≈ 25 µg/mL) in the test on Staphylococcus aureus; 5.39 µM (≈ 12.5 µg/mL) in test [30]; at least 43.1 µM in [31]. The compound also gave an MIC in [32] of 5.39 µM (≈ 12.5 µg/mL).
